Columns and labels:
Type in all cases: functional
CCRF-CEM = experiment: Growth inhibition of human CCRF-CEM cells assessed as cell growth at 10 uM after 48 hrs by sulforhodamine B assay relative to control; details: read-out: Activity
K562 = experiment: Growth inhibition of human K562 cells assessed as cell growth at 10 uM after 48 hrs by sulforhodamine B assay relative to control; details: K562, 48 h, read-out: Activity
RPMI-8226 = experiment: Growth inhibition of human RPMI8226 cells assessed as cell growth at 10 uM after 48 hrs by sulforhodamine B assay relative to control; details: RPMI-8226, 48 h, read-out: Activity
SR = experiment: Growth inhibition of human SR cells assessed as cell growth at 10 uM after 48 hrs by sulforhodamine B assay relative to control; details: read-out: Activity
A549 = experiment: Growth inhibition of human A549/ATCC cells assessed as cell growth at 10 uM after 48 hrs by sulforhodamine B assay relative to control; details: A549, 48 h, read-out: Activity
EKVX = experiment: Growth inhibition of human EKVX cells assessed as cell growth at 10 uM after 48 hrs by sulforhodamine B assay relative to control; details: read-out: Activity
NCI-H23 = experiment: Growth inhibition of human NCI-H23 cells assessed as cell growth at 10 uM after 48 hrs by sulforhodamine B assay relative to control; details: NCI-H23, 48 h, read-out: Activity
NCI-H322M = experiment: Growth inhibition of human NCI-H322M cells assessed as cell growth at 10 uM after 48 hrs by sulforhodamine B assay relative to control; details: read-out: Activity
HCT-116 = experiment: Growth inhibition of human HCT116 cells assessed as cell growth at 10 uM after 48 hrs by sulforhodamine B assay relative to control; details: HCT-116, 48 h, read-out: Activity
HCT-15 = experiment: Growth inhibition of human HCT15 cells assessed as cell growth at 10 uM after 48 hrs by sulforhodamine B assay relative to control; details: HCT-15, 48 h, read-out: Activity
HT-29 = experiment: Growth inhibition of human HT-29 cells assessed as cell growth at 10 uM after 48 hrs by sulforhodamine B assay relative to control; details: HT-29, 48 h, read-out: Activity
KM12 = experiment: Growth inhibition of human KM12 cells assessed as cell growth at 10 uM after 48 hrs by sulforhodamine B assay relative to control; details: KM12, 48 h, read-out: Activity
SW-620 = experiment: Growth inhibition of human SW620 cells assessed as cell growth at 10 uM after 48 hrs by sulforhodamine B assay relative to control; details: SW-620, 48 h, read-out: Activity
SF-268 = experiment: Growth inhibition of human SF268 cells assessed as cell growth at 10 uM after 48 hrs by sulforhodamine B assay relative to control; details: SF-268, 48 h, read-out: Activity
SF-295 = experiment: Growth inhibition of human SF295 cells assessed as cell growth at 10 uM after 48 hrs by sulforhodamine B assay relative to control; details: SF-295, 48 h, read-out: Activity
SNB-75 = experiment: Growth inhibition of human SNB75 cells assessed as cell growth at 10 uM after 48 hrs by sulforhodamine B assay relative to control; details: SNB-75, 48 h, read-out: Activity
LOX IMVI = experiment: Growth inhibition of human LOXIMVI cells assessed as cell growth at 10 uM after 48 hrs by sulforhodamine B assay relative to control; details: read-out: Activity
M14 = experiment: Growth inhibition of human M14 cells assessed as cell growth at 10 uM after 48 hrs by sulforhodamine B assay relative to control; details: M14, 48 h, read-out: Activity
SK-MEL-28 = experiment: Growth inhibition of human SK-MEL-28 cells assessed as cell growth at 10 uM after 48 hrs by sulforhodamine B assay relative to control; details: SK-MEL-28, 48 h, read-out: Activity
SK-MEL-5 = experiment: Growth inhibition of human SK-MEL-5 cells assessed as cell growth at 10 uM after 48 hrs by sulforhodamine B assay relative to control; details: SK-MEL-5, 48 h, read-out: Activity
UACC-257 = experiment: Growth inhibition of human UACC257 cells assessed as cell growth at 10 uM after 48 hrs by sulforhodamine B assay relative to control; details: UACC-257, 48 h, read-out: Activity
IGROV-1 = experiment: Growth inhibition of human IGROV1 cells assessed as cell growth at 10 uM after 48 hrs by sulforhodamine B assay relative to control; details: IGROV-1, 48 h, read-out: Activity
OVCAR-4 = experiment: Growth inhibition of human OVCAR4 cells assessed as cell growth at 10 uM after 48 hrs by sulforhodamine B assay relative to control; details: OVCAR-4, 48 h, read-out: Activity
OVCAR-8 = experiment: Growth inhibition of human OVCAR8 cells assessed as cell growth at 10 uM after 48 hrs by sulforhodamine B assay relative to control; details: OVCAR-8, 48 h, read-out: Activity
NCI/ADR-RES = experiment: Growth inhibition of human NCI/ADR-RES cells assessed as cell growth at 10 uM after 48 hrs by sulforhodamine B assay relative to control; details: read-out: Activity
SK-OV-3 = experiment: Growth inhibition of human SKOV3 cells assessed as cell growth at 10 uM after 48 hrs by sulforhodamine B assay relative to control; details: SK-OV-3, 48 h, read-out: Activity
A498 = experiment: Growth inhibition of human A498 cells assessed as cell growth at 10 uM after 48 hrs by sulforhodamine B assay relative to control; details: A498, 48 h, read-out: Activity
ACHN = experiment: Growth inhibition of human ACHN cells assessed as cell growth at 10 uM after 48 hrs by sulforhodamine B assay relative to control; details: read-out: Activity
SN12C = experiment: Growth inhibition of human SN12C cells assessed as cell growth at 10 uM after 48 hrs by sulforhodamine B assay relative to control; details: read-out: Activity
TK-10 = experiment: Growth inhibition of human TK10 cells assessed as cell growth at 10 uM after 48 hrs by sulforhodamine B assay relative to control; details: TK-10, 48 h, read-out: Activity
UO-31 = experiment: Growth inhibition of human UO31 cells assessed as cell growth at 10 uM after 48 hrs by sulforhodamine B assay relative to control; details: UO-31, 48 h, read-out: Activity
MDA-MB-231 = experiment: Growth inhibition of human MDA-MB-231 cells assessed as cell growth at 10 uM after 48 hrs by sulforhodamine B assay relative to control; details: MDA-MB-231, 48 h, read-out: Activity
Hs-578T = experiment: Growth inhibition of human Hs 578T cells assessed as cell growth at 10 uM after 48 hrs by sulforhodamine B assay relative to control; details: read-out: Activity
BT-549 = experiment: Growth inhibition of human BT549 cells assessed as cell growth at 10 uM after 48 hrs by sulforhodamine B assay relative to control; details: BT-549, 48 h, read-out: Activity
T47D = experiment: Growth inhibition of human T47D cells assessed as cell growth at 10 uM after 48 hrs by sulforhodamine B assay relative to control; details: read-out: Activity

Structure (SMILES) | growth at 10 µM (CCRF-CEM) [%] | growth at 10 µM (K562) [%] | growth at 10 µM (RPMI-8226) [%] | growth at 10 µM (SR) [%] | growth at 10 µM (A549) [%] | growth at 10 µM (EKVX) [%] | growth at 10 µM (NCI-H23) [%] | growth at 10 µM (NCI-H322M) [%] | growth at 10 µM (HCT-116) [%] | growth at 10 µM (HCT-15) [%] | growth at 10 µM (HT-29) [%] | growth at 10 µM (KM12) [%] | growth at 10 µM (SW-620) [%] | growth at 10 µM (SF-268) [%] | growth at 10 µM (SF-295) [%] | growth at 10 µM (SNB-75) [%] | growth at 10 µM (LOX IMVI) [%] | growth at 10 µM (M14) [%] | growth at 10 µM (SK-MEL-28) [%] | growth at 10 µM (SK-MEL-5) [%] | also measured
COc1ccc(Cn2cc(C(=O)N/N=C3/C(=O)Nc4ccc(C)cc43)nn2)cc1 | 98.1 | 87.8 | 105 | 86 | 97.9 | 108 | 104 | 102 | 122 | 111 | 87.1 | 95.4 | 104 | 94.1 | 111 | 110 | 102 | 109 | 111 | 91.7 | growth at 10 µM (UACC-257): 101%; growth at 10 µM (IGROV-1): 109%; growth at 10 µM (OVCAR-4): 104%; growth at 10 µM (OVCAR-8): 104%; growth at 10 µM (NCI/ADR-RES): 100%; growth at 10 µM (SK-OV-3): 113%; growth at 10 µM (A498): 91.6%; growth at 10 µM (ACHN): 111%; growth at 10 µM (SN12C): 98.4%; growth at 10 µM (TK-10): 94.6%; growth at 10 µM (UO-31): 95%; growth at 10 µM (MDA-MB-231): 110%; growth at 10 µM (Hs-578T): 106%; growth at 10 µM (BT-549): 112%; growth at 10 µM (T47D): 104%
COc1ccc(Cn2cc(C(=O)N/N=C3/C(=O)Nc4c(Cl)cccc43)nn2)cc1 | 106 | 89.2 | 106 | 80.3 | 102 | 102 | 99.3 | 101 | 91.6 | 107 | 97 | 107 | 99.7 | 94.7 | 109 | 82 | 93.8 | 106 | 115 | 101 | growth at 10 µM (UACC-257): 92.9%; growth at 10 µM (IGROV-1): 103%; growth at 10 µM (OVCAR-4): 104%; growth at 10 µM (OVCAR-8): 97.4%; growth at 10 µM (NCI/ADR-RES): 105%; growth at 10 µM (SK-OV-3): 113%; growth at 10 µM (A498): 93.8%; growth at 10 µM (ACHN): 111%; growth at 10 µM (SN12C): 95.8%; growth at 10 µM (TK-10): 106%; growth at 10 µM (UO-31): 93.5%; growth at 10 µM (MDA-MB-231): 98.5%; growth at 10 µM (Hs-578T): 97.5%; growth at 10 µM (BT-549): 111%; growth at 10 µM (T47D): 100%
COc1ccc(Cn2cc(C(=O)N/N=C3/C(=O)Nc4ccc(Br)cc43)nn2)cc1 | 92.5 | 88.1 | 100 | 77.5 | 95.1 | 106 | 102 | 102 | 77 | 105 | 88.5 | 104 | 107 | 94.1 | 95.8 | 112 | 107 | 111 | 116 | 98.3 | growth at 10 µM (UACC-257): 102%; growth at 10 µM (IGROV-1): 105%; growth at 10 µM (OVCAR-4): 105%; growth at 10 µM (OVCAR-8): 99.2%; growth at 10 µM (NCI/ADR-RES): 103%; growth at 10 µM (SK-OV-3): 108%; growth at 10 µM (A498): 97.1%; growth at 10 µM (ACHN): 110%; growth at 10 µM (SN12C): 102%; growth at 10 µM (TK-10): 97.6%; growth at 10 µM (UO-31): 91.5%; growth at 10 µM (MDA-MB-231): 108%; growth at 10 µM (Hs-578T): 114%; growth at 10 µM (BT-549): 111%; growth at 10 µM (T47D): 106%

— ChEMBL document CHEMBL4411296, “Design and development of Isatin-triazole hydrazones as potential inhibitors of microtubule affinity-regulating kinase 4 for the therapeutic management of cell proliferation and metastasis” (Eur J Med Chem, 2019)
